Measured values from patent publication US8426559B2, “Injectable β-hairpin peptide hydrogel that kills methicillin-resistant Staphylococcus aureus” (University of Delaware, priority 2009, dated 2013).
Non-standard residues stand in square brackets, D forms with d. Residues, ends and D or L forms follow the SMILES beside them.

Key:
[1] = tested on: MRSA (methicillin-resistant Staphylococcus aureus, ATCC 33591); test: Antibacterial assay: bacteria introduced onto hydrogel-coated TCTP surface, proliferation by OD625nm; type: cell-based; conditions: 2 wt % hydrogel on TCTP, 24 hr at 37° C.
Description: The antibacterial activity of MARG1 hydrogels was assessed via two distinct assays. In the first assay, bacteria were introduced to the surface of tissue culture treated polystyrene (TCTP) coated with a ˜1-2 mm layer of the gel and its ability to inhibit bacterial proliferation was assessed. This assay measures the ability of MARG1 gels to thwart new infection at a particular site. Here, gels were formed directly on the polystyrene surface without the aid of shear-thin delivery. In the second assay, MARG1 gels were shear-thin delivered via syringe to agar surfaces infected with bacteria, and the ability of the gel to kill bacteria on contact was measured. […]
The gels were incubated for 24 hr at 37° C., and bacterial proliferation was quantitated by light scattering as described in Salick, D. A.; Kretsinger, J. K.; Pochan, D. J.; Schneider, J. P. J. Am. […]
(§1) For each assay, 100 μL of bacteria-free TSB was introduced onto the surface of the hydrogels. […] After this, bacterial growth was monitored by measuring OD625nm of the liquid above the gel by adding 100 μL of bacteria-free TSB to the surfaces, gently mixing and transferring the supernatant to a cuvette. Corrected OD625nm values were calculated to correct for dilution and to normalize for scattering that occurs for each individual bacterial strain. […]

[2] = tested on: MSSA (methicillin-susceptible Staphylococcus aureus, ATCC 25923); test: as above; type: cell-based; conditions: 2 wt % hydrogel on TCTP, all bacterial cell loading densities, 24 h, compared to uncoated surface
Description: The antibacterial activity of MARG1 hydrogels was assessed via two distinct assays. In the first assay, bacteria were introduced to the surface of tissue culture treated polystyrene (TCTP) coated with a ˜1-2 mm layer of the gel and its ability to inhibit bacterial proliferation was assessed. This assay measures the ability of MARG1 gels to thwart new infection at a particular site. Here, gels were formed directly on the polystyrene surface without the aid of shear-thin delivery. In the second assay, MARG1 gels were shear-thin delivered via syringe to agar surfaces infected with bacteria, and the ability of the gel to kill bacteria on contact was measured. This assay simulates the introduction of the MARG1 gel via syringe to a bacterial contaminated surface, such as a wound.
Hydrogels for the antibacterial assays were prepared in separate wells of 96-well tissue culture-treated polystyrene plates (Costar 3595). […]
as §1

[3] = tested on: C3H10t1/2 mesenchymal stem cells; test: Cytotoxicity of hydrogel towards mammalian cells, live/dead viability assay; type: cell-based, murine
Description: The confocal images show live/dead viability assays performed using murine C3H10t1/2 mesenchymal stem cells that had been cultured for 24 h on (A) a 2 wt % MARG1 hydrogel surface and on (B) a TCTP control surface. This cell line was chosen because these cells are sensitive to their environment and thus good indicators of a material's cytotoxic properties.
The images in FIGS. 5A,B are rendered in black and white, where the light areas represent cells that fluoresce green (live cells) and dark areas represent cells that fluoresce red (dead cells).
C3H10t1/2 mesenchymal stem cells (ATCC # CCL-226) were cultured using Dulbecco's Modified Eagle's Medium (DMEM, Sigma Aldrich, D6546) supplemented with 10% Fetal Bovine Serum, 5 mM L-Glutamine, 50 μg/mL Gentamicin at 37° C. in 5% CO2. Cells were cultured in T75 cell culture flasks. Cells were kept in culture for seven passages and used for cellular viability on passage number 7. For cell plating, cells were trypsinized and counted using a hemacytometer. The resultant cell suspension was introduced to the hydrogel and control surfaces such that a cell loading density of 30,000 cells/cm^2 was achieved. These samples were incubated for 24 hours at 37° C., 5% CO2. […]

Compound	MRSA proliferation on hydrogel-coated surface (OD) ([1]; challenged with 2×10^8 CFU/dm^2 MRSA)	MRSA proliferation on hydrogel-coated surface (OD) ([1]; lower CFUs of MRSA)	MSSA proliferation on hydrogel-coated surface (OD) [2]	Cytotoxicity towards mammalian cells ([3]; C3H10t1/2 cells cultured 24 h on 2 wt % hydrogel surface)	Viability of cells cultured on hydrogel surface versus TCTP control ([3]; C3H10t1/2 cells, 24 h, 2 wt % hydrogel surface)
VKVKVKVKV^DPPTKVKVKVKV-NH2 [MAX1]	uninhibited MRSA proliferation	inhibiting MRSA at lower CFUs	can inhibit bacterial proliferation		
CC(C)[C@H](N)C(=O)N[C@@H](CCCCN)C(=O)N[C@H](C(=O)N[C@@H](CCCCN)C(=O)N[C@H](C(=O)N[C@@H](CCCNC(=N)N)C(=O)N[C@H](C(=O)N[C@@H](CCCCN)C(=O)N[C@H](C(=O)N1CCC[C@@H]1C(=O)N1CCC[C@H]1C(=O)N[C@H](C(=O)N[C@@H](CCCCN)C(=O)N[C@H](C(=O)N[C@@H](CCCCN)C(=O)N[C@H](C(=O)N[C@@H](CCCNC(=N)N)C(=O)N[C@H](C(=O)N[C@@H](CCCCN)C(=O)N[C@H](C(N)=O)C(C)C)C(C)C)C(C)C)C(C)C)[C@@H](C)O)C(C)C)C(C)C)C(C)C)C(C)C [MARG1, VKVKVRVKV^DPPTKVKVRVKV-NH2] (H-VKVKVRVKV[dP]PTKVKVRVKV-NH2)				non-cytotoxic	no significant difference
